From US11013228B2, “Method of processing allograft skin for transplantation, and cryopreserved allograft skin produced thereby” (CG BIO CO., LTD., priority 2009, dated 2021)
Values joined by “and” are separate entries in the source; they are usually repeats but may differ in a detail not shown here. Equal entries are not always repeated.

Test system: pig skin
Experiment: TUNEL assay, cell death rate according to sucrose concentration in the cryoprotectant
Assay type: cell-based
Conditions: for cell death rate, AVE: average of 6 samples
Procedure: Because human skin tissue harvested from a donor (cadaver) is prohibited from being used in an experiment, pig skin—which is the closest to human skin—is used for preparing ten (10) of both cryopreserved skins and glycerol-preserved skins according to the following methods of Example and Comparative Example. To investigate the change of the cell death rate according to the difference of sucrose concentration, the cryopreserved allograft skin was prepared by the same method as in the Example except that the sucrose concentration in the cryoprotectant was 5, 10, 15, 20, 25, 30, 35 and 40 wt %, and it was then analyzed by TUNEL assay. TUNEL assay was carried out by using an In Situ Cell Death Detection Kit, Fluorescein (Roche, Germany) according to the manufacturer's instructions, and 4′,6-diamidino-2-phenylindole (DAPI) was used as a fluorescent marker. The results of cell death rate are shown in the following Table 1, and represented in FIG. 6 as a graph.

## OC[C@H]1O[C@@](CO)(O[C@H]2O[C@H](CO)[C@@H](O)[C@H](O)[C@H]2O)[C@@H](O)[C@@H]1O [Sucrose, sucrose]
Sucrose 25 to 40 wt % in the final concentration, Table 1 and FIG. 6
  cell death rate: quite low
Sucrose conc. 5 wt % in cryoprotectant
  cell death rate, AVE: 48%
Sucrose conc. 5 wt % in cryoprotectant, individual samples n 1-6
  cell death rate: 65% and 45% and 36% and 64% and 39% and 41%
Sucrose conc. 10 wt % in cryoprotectant
  cell death rate, AVE: 47%
Sucrose conc. 10 wt % in cryoprotectant, individual samples n 1-6
  cell death rate: 26% and 49% and 55% and 57% and 56% and 41%
Sucrose conc. 15 wt % in cryoprotectant
  cell death rate, AVE: 41%
Sucrose conc. 15 wt % in cryoprotectant, individual samples n 1-6
  cell death rate: 25% and 31% and 22% and 47% and 57% and 66%
Sucrose conc. 20 wt % in cryoprotectant
  cell death rate, AVE: 35%
Sucrose conc. 20 wt % in cryoprotectant, individual samples n 1-6
  cell death rate: 43% and 35% and 21% and 22% and 23% and 68%
Sucrose conc. 25 wt % in cryoprotectant
  cell death rate, AVE: 28%
Sucrose conc. 25 wt % in cryoprotectant, individual samples n 1-6
  cell death rate: 19% and 23% and 28% and 64% and 12% and 20%
Sucrose conc. 30 wt % in cryoprotectant
  cell death rate, AVE: 20%
Sucrose conc. 30 wt % in cryoprotectant, individual samples n 1-6
  cell death rate: 20% (2×) and 23% and 39% and 11% and 5%
Sucrose conc. 35 wt % in cryoprotectant
  cell death rate, AVE: 23%
Sucrose conc. 35 wt % in cryoprotectant, individual samples n 1-6
  cell death rate: 30% and 25% and 10% and 23% and 28% and 21%
Sucrose conc. 40 wt % in cryoprotectant
  cell death rate, AVE: 28%
Sucrose conc. 40 wt % in cryoprotectant, individual samples n 1-6
  cell death rate: 13% and 36% and 33% and 41% and 26% and 20%
